# Patent US20140227325A1, “LIGNIN-DERIVED POROUS CARBON COMPOSITION, METHODS OF PREPARATION, AND USE THEREOF” (UT-BATTELLE, LLC, priority 2013, published 2014)
# What was measured:
# [1] = Drug loading amount by thermogravimetric analysis (TGA); assay type: physicochemical; settings: for Loading percent in LMC-2: drug loaded in LMC-2, TGA; for Loading percent in PMC: drug loaded in PMC, TGA
# Protocol: (§1) The loaded mesoporous carbons were dried, the external surface cleaned, and then placed into 130 cm^3 of simulated gastric fluid without pepsin (SGF; 0.2% w/v NaCl, aqueous HCl, pH adjusted to ˜1.5) or into simulated intestinal fluid (SIF) at ambient temperature for 30-50 hours under mild stirring (˜60 rpm) for in-vitro drug release. The drug concentrations were measured by UV-Vis spectroscopy utilizing a calibration curve on absorbance at various concentrations of the drug in SGF or SIF medium.
# The drug loading amount in PMC and LMC-2 were measured with the help of thermogravimetric analysis (TGA). Pure mesoporous carbons, pure drugs, and drug-loaded carbons were heated under an inert atmosphere (N2) up to 1000° C., wherein the drug loading amount was calculated by comparing the relative amount of residues.
# [2] = cited from earlier work
# [3] = In-vitro drug release from loaded mesoporous carbon in SGF or SIF (UV-Vis), with kinetic and diffusivity analysis; assay type: physicochemical
# Protocol: as §1
# In order to further investigate the diffusivity of the loaded drugs in the releasing media, Fick's laws of diffusion in spherical and cylindrical coordinates were utilized. Based on the assumption that drug-loaded mesoporous carbons are monolithic systems, the release profile in the spherical system can be mathematically expressed as (J. Siepmann, F. Siepmann, J., Controlled Release, 161 (2012) 351-362.):
# versus t will yield the diffusivity values for both types of systems. […] As the centers of micelles are believed to give rise to the mesopores, and because the micelles are approximately spherical in shape, a distorted spherical to cylindrical entity could serve as the closest approximation of the pore geometry. Based on these assumptions, diffusivity values have been calculated from all the release patterns for both spherical and cylindrical systems.
# versus t which also yields the diffusivity values of antipyrine from LMC-2 and PMC at three temperatures of 25° C., 35.5° C., and 50° C. Because of the surfactant templating, it was assumed that the mesopore geometries have a spherical to cylindrical shape, which became a basis for calculating the diffusivity values from each of the patterns in both cylindrical and spherical systems.
# In order to provide further insight on the temperature dependence of diffusivity, calculations were made using the Eyring equation by assuming antipyrine diffusion from the pores of the carbons is an activation process,
# where Eα is the activation energy.
# [4] = N2 adsorption-desorption on drug-loaded mesoporous carbons (pore filling); assay type: physicochemical
# Protocol: In order to further investigate the occupancy of pore space by drug molecules, N2 adsorption-desorption experiments were performed on the drug-loaded mesoporous carbons, and the pore size distribution was calculated by the NLDFT method.
# [5] = from LMC-1, SGF, within around 60% of total drug release
Compound,Loading percent in LMC-2 [1],Loading percent in PMC [1],completion of release ([2]; from porous silica),"Diffusivity, Cylindrical ([3]; LMC/SGF)","Diffusivity, Spherical ([3]; LMC/SGF)","Diffusivity, Cylindrical ([3]; PMC/SGF)","Diffusivity, Spherical ([3]; PMC/SGF)","time to complete release ([3]; from LMC, SGF)","order of release (Korsmeyer-Peppas equation) [3, 5]","release rate constant (Korsmeyer-Peppas equation) [3, 5]","time to complete release ([3]; from PMC, SGF)",pore filling by drug ([4]; PMC),"Diffusivity, Cylindrical ([3]; PMC/SIF)","Diffusivity, Spherical ([3]; PMC/SIF)","initial burst, drug released within 1.5 hours ([3]; SGF)","time to complete release ([3]; from PMC, SIF (pH ~6.8))",order of magnitude of diffusivity ([3]; release from LMC),order of magnitude of diffusivity ([3]; release from PMC in both SGF and SIF),"pore filling by drug ([4]; both types of carbons (PMC, LMC-2))","release completed ([2]; from mesoporous silica nanoparticles, pH range 5.5 to 7.4)"
Cc1cc(=O)n(-c2ccccc2)n1C [Antipyrine],12%,22%,300 min,,,,,,,,,,,,,,,,,
C[C@H](CS)C(=O)N1CCC[C@H]1C(=O)O [Captopril],5%,13%,,2 × 10^−22 m^2/s,9 × 10^−23 m^2/s,2 × 10^−23 m^2/s,7 × 10^−24 m^2/s,< 20 h,0.42,3.9,~40 h,highest pore filling,,,,,,,,
NS(=O)(=O)c1cc(C(=O)O)c(NCc2ccco2)cc1Cl [Furosemide],6.6%,6.7%,,6 × 10^−22 m^2/s,4 × 10^−22 m^2/s,7 × 10^−23 m^2/s,4 × 10^−23 m^2/s,less than 10 hours,,,30 to 40 h,,2 × 10^−23 m^2/s,1 × 10^−23 m^2/s,60%,30 to 40 h,10^−22 m^2/s,10^−23 m^2/s,minimum pore filling,less than 100 minutes
